Data: US10047074B2, “Pharmaceutical compound” (IOmet Pharma Ltd., priority 2014, dated 2018)

What was measured:
TDO (A172) = target: T1, TDO (A172) (Homo sapiens, UniProt P48775); test: A172 Kynurenine cell based assay; details: A172 human glioblastoma cells expressing TDO; kynurenine production, 48 hours
T1 construct: This assay utilised cancer cells which expressed either TDO (A172) or IDO (SKOV3); endogenous in cells; host or cells: A172 (human glioblastoma)
Procedure: (§1) Exemplary compounds of the invention were prepared, and tested to determine their effect as TDO and/or IDO inhibitors. Two different assays were employed: 1. a cell-based assay for detecting the effect of test compounds on kynurenine production in two different cancer cell types. This assay utilised cancer cells which expressed either TDO (A172) or IDO (SKOV3) and as such was used as a means of testing compound activity at these two enzymes in a cell-based context. 2. a TDO and IDO biochemical coupled assay which utilised recombinantly produced and purified TDO and IDO enzymes in combination with the enzyme formamidase. This coupled enzyme system allowed conversion of N-formylkynurenine produced by TDO or IDO activity to kynurenine which was then quantified by fluorescence following addition of Erhlich's Reagent The protocols for these are set out below.
(§2) Cell Based Assay for Detection of Kynurenine Produced by TDO and/or IDO
A172 (human glioblastoma) and SKOV3 (human ovarian adenocarcinoma) cells were seeded in a 96 well plate at 30,000 or 40,000 cells per well respectively in phenol red-free RPMI supplemented with 10% FCS, 2 mM L-glutamine and 500 µM L-tryptophan. IDO expression was induced in the SKOV3 cells by the addition of 500 ng/ml IFN-γ. Cells were incubated at 37° C. with or without the addition of test compound. After 48 hours, the cells were removed by centrifugation and Erhlich's reagent was added to the supernatant. The Erhlich's reagent was incubated for 5 minutes before the absorbance was read at 490 nm.

IDO (SKOV3) = target: T2, IDO (SKOV3) (Homo sapiens, UniProt P14902); test: SKOV3 Kynurenine cell based assay; details: SKOV3 human ovarian adenocarcinoma cells, IDO induced by IFN-γ; kynurenine production, 48 hours
T2 construct: IDO expression was induced in the SKOV3 cells by the addition of 500 ng/ml IFN-γ; endogenous in cells; host or cells: SKOV3 (human ovarian adenocarcinoma), IFN-γ induced
T2 sequence (P14902 whole entry): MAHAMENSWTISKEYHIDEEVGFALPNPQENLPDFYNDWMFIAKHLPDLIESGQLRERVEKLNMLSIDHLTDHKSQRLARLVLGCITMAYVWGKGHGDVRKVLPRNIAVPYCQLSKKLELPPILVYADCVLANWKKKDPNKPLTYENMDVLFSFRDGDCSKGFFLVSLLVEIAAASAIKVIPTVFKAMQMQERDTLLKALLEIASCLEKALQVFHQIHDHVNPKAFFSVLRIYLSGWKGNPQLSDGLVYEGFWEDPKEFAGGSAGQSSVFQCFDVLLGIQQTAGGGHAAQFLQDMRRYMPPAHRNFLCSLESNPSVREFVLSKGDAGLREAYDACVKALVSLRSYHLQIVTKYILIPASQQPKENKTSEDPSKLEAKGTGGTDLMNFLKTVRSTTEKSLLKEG
Procedure: as §1, §2
A172 (human glioblastoma) and SKOV3 (human ovarian adenocarcinoma) cells were seeded in a 96 well plate at 30,000 or 40,000 cells per well respectively in phenol red-free RPMI supplemented with 10% FCS, 2 mM L-glutamine and 500 µM L-tryptophan. IDO expression was induced in the SKOV3 cells by the addition of 500 ng/ml IFN-γ. Cells were incubated at 37° C. with or without the addition of test compound. After 48 hours, the cells were removed by centrifugation and Erhlich's reagent was added to the supernatant.

Recombinant human IDO = Recombinant human IDO (Homo sapiens, UniProt P14902); test: hIDO biochemical assay (coupled with formamidase); details: coupled with kynurenine formamidase, fluorescence
Recombinant human IDO, sequence (P14902 whole entry): as above
Procedure: as §1
(§3) TDO and IDO Biochemical Coupled Assay
(§4) Recombinant human IDO or TDO was incubated in 50 mM KPO4 (pH 7.0), 0.5 mM EGTA, 0.5 mM EDTA, 0.05% Triton™ X100, 20 mM ascorbate, […] methylene blue, 500 U/ml catalase, 50 μg/ml KynB (kynurenine formamidase). TDO assays were carried out in the presence of 330 μM L-tryptophan, while IDO assays had the addition of 45 µM L-tryptophan. After incubation for 17 minutes at room temperature the reactions were stopped by the addition of Erhlich's reagent and incubated at room temperature for 5 minutes before the fluorescence was read (Ex475, Em530).

Recombinant human TDO = Recombinant human TDO (Homo sapiens, UniProt P48775); test: hTDO biochemical assay (coupled with formamidase); details: 330 μM L-tryptophan, coupled with kynurenine formamidase, fluorescence
Recombinant human TDO, sequence (P48775 whole entry): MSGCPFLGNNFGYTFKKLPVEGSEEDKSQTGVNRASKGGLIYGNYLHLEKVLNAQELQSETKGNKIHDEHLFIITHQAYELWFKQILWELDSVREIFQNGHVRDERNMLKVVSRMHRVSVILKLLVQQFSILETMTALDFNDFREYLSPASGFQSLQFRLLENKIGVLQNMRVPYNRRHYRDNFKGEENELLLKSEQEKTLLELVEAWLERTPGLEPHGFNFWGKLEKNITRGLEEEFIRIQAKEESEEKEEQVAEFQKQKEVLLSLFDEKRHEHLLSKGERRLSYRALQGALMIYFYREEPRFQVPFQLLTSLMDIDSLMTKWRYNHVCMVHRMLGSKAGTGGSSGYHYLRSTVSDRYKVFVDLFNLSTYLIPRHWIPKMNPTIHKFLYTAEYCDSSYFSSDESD
Procedure: as §1, §3, §4

T1 sequence (P48775 whole entry): as above

A172 Kynurenine cell based assay pIC50 (TDO (A172)) | SKOV3 Kynurenine cell based assay pIC50 (IDO (SKOV3)) | hIDO biochemical assay pIC50 (Recombinant human IDO) | hTDO biochemical assay pIC50 (Recombinant human TDO) | Structure (SMILES)
+/− (+/− = pIC50 < 4.00) | + (+ = pIC50 4.00-4.49) | ++ (++ = pIC50 4.50-5.49) | +/− (+/− = pIC50 < 4.00) | CC(C)CS(=O)(=O)Nc1cnoc1-c1ccccc1 [Compound 80]
+++ (+++ = pIC50 ≥ 5.50) | ++ (++ = pIC50 4.50-5.49) | +/− (+/− = pIC50 < 4.00) | + (+ = pIC50 4.00-4.49) | O=C(Nc1oncc1-c1ccccc1)c1ccccc1 [Compound 49]
++ (++ = pIC50 4.50-5.49) | ++ (++ = pIC50 4.50-5.49) | ++ (++ = pIC50 4.50-5.49) | – | N#Cc1ccc(-c2cnoc2N)cc1 [Compound 50]
++ (++ = pIC50 4.50-5.49) | + (+ = pIC50 4.00-4.49) | – | – | CN(C)C(=O)CCC(=O)Nc1oncc1-c1ccccc1 [Compound 58]
+ (+ = pIC50 4.00-4.49) | +/− (+/− = pIC50 < 4.00) | – | – | CN1CCCCC1C(=O)Nc1oncc1-c1ccccc1 (centres unmarked) [Compound 61]
++ (++ = pIC50 4.50-5.49) | + (+ = pIC50 4.00-4.49) | – | – | CN1CCC(C(=O)Nc2oncc2-c2ccccc2)CC1 [Compound 36]
+/− (+/− = pIC50 < 4.00) | ++ (++ = pIC50 4.50-5.49) | – | – | O=S(=O)(Nc1cnoc1-c1ccccc1)N1CCCCC1 [Compound 56]
++ (++ = pIC50 4.50-5.49) | + (+ = pIC50 4.00-4.49) | – | – | CC(C)(O)C(=O)Nc1oncc1-c1ccccc1 [Compound 64]
++ (++ = pIC50 4.50-5.49) | + (+ = pIC50 4.00-4.49) | – | – | CC(C)S(=O)(=O)Nc1oncc1-c1ccccc1 [Compound 30]
+++ (+++ = pIC50 ≥ 5.50) | ++ (++ = pIC50 4.50-5.49) | – | – | CNC(=O)CCC(=O)Nc1oncc1-c1ccccc1 [Compound 65]
++ (++ = pIC50 4.50-5.49) | + (+ = pIC50 4.00-4.49) | – | – | Nc1oncc1-c1ccccn1 [Compound 11]
+++ (+++ = pIC50 ≥ 5.50) | ++ (++ = pIC50 4.50-5.49) | – | – | Cc1ccc(-c2cnoc2N)cc1 [Compound 3]
++ (++ = pIC50 4.50-5.49) | + (+ = pIC50 4.00-4.49) | – | – | Cc1noc(N)c1-c1ccccc1 [Compound 10]
+/− (+/− = pIC50 < 4.00) | ++ (++ = pIC50 4.50-5.49) | – | – | CC(C)(C)C(=O)Nc1oncc1-c1ccc(F)cc1 [Compound 8]
++ (++ = pIC50 4.50-5.49) | + (+ = pIC50 4.00-4.49) | – | – | O=C(Nc1oncc1-c1ccccc1)C(O)c1ccccc1 (centres unmarked) [Compound 76]
++ (++ = pIC50 4.50-5.49) | ++ (++ = pIC50 4.50-5.49) | – | – | O=C(Nc1nnnn1-c1ccccc1)c1ccccc1 [Compound 70]
+ (+ = pIC50 4.00-4.49) | + (+ = pIC50 4.00-4.49) | – | – | O=C(Nc1oncc1-c1ccccc1)C(O)C1CCCCC1 (centres unmarked) [Compound 74]
++ (++ = pIC50 4.50-5.49) | ++ (++ = pIC50 4.50-5.49) | – | – | O=C(Nc1oncc1-c1ccccc1)c1cccnc1 [Compound 62]

A172 Kynurenine cell based assay pIC50 (TDO (A172)) | SKOV3 Kynurenine cell based assay pIC50 (IDO (SKOV3)) | hIDO biochemical assay pIC50 (Recombinant human IDO) | hTDO biochemical assay pIC50 (Recombinant human TDO) | Structure (SMILES)
+++ (+++ = pIC50 ≥ 5.50) | + (+ = pIC50 4.00-4.49) | – | – | CCOC(=O)C(=O)Nc1oncc1-c1ccccc1 [Compound 45]
++ (++ = pIC50 4.50-5.49) | ++ (++ = pIC50 4.50-5.49) | – | – | CNc1oncc1-c1ccccc1 [Compound 21]
++ (++ = pIC50 4.50-5.49) | +/− (+/− = pIC50 < 4.00) | – | – | Oc1oncc1-c1ccccc1 [Compound 23]
++ (++ = pIC50 4.50-5.49) | + (+ = pIC50 4.00-4.49) | – | – | Nc1oncc1-c1ccccc1O [Compound 68]
+++ (+++ = pIC50 ≥ 5.50) | ++ (++ = pIC50 4.50-5.49) | – | – | CCOC(=O)CC(=O)Nc1oncc1-c1ccccc1 [Compound 43]
++ (++ = pIC50 4.50-5.49) | +/− (+/− = pIC50 < 4.00) | – | – | Cc1noc(N)c1-c1ccc(F)cc1 [Compound 6]
+/− (+/− = pIC50 < 4.00) | ++ (++ = pIC50 4.50-5.49) | – | – | O=S(=O)(Nc1cncn1-c1ccccc1)c1ccccc1 [Compound 79]
++ (++ = pIC50 4.50-5.49) | +/− (+/− = pIC50 < 4.00) | – | – | CS(=O)(=O)NCCC(=O)Nc1oncc1-c1ccccc1 [Compound 48]
+/− (+/− = pIC50 < 4.00) | + (+ = pIC50 4.00-4.49) | – | – | CC(C)CS(=O)(=O)Nc1cncn1-c1ccccc1 [Compound 72]
++ (++ = pIC50 4.50-5.49) | ++ (++ = pIC50 4.50-5.49) | – | – | Nc1oncc1-c1ccc(F)cc1F [Compound 14]
+++ (+++ = pIC50 ≥ 5.50) | ++ (++ = pIC50 4.50-5.49) | – | – | O=C(CCO)Nc1oncc1-c1ccccc1 [Compound 41]
+ (+ = pIC50 4.00-4.49) | +++ (+++ = pIC50 ≥ 5.50) | – | – | c1ccc(-n2nnnc2NCC2CCCCC2)cc1 [Compound 52]
+++ (+++ = pIC50 ≥ 5.50) | ++ (++ = pIC50 4.50-5.49) | – | – | OCCNc1oncc1-c1ccccc1 [Compound 57]
+++ (+++ = pIC50 ≥ 5.50) | + (+ = pIC50 4.00-4.49) | – | – | CN(C)CCC(=O)Nc1oncc1-c1ccccc1 [Compound 69]
+++ (+++ = pIC50 ≥ 5.50) | ++ (++ = pIC50 4.50-5.49) | – | – | O=C(Nc1oncc1-c1ccccc1)C1CCCCN1 (centres unmarked) [Compound 44]
++ (++ = pIC50 4.50-5.49) | ++ (++ = pIC50 4.50-5.49) | – | – | COc1ccc(-c2cnoc2N)cc1 [Compound 4]
++ (++ = pIC50 4.50-5.49) | ++ (++ = pIC50 4.50-5.49) | – | – | O=C(Nc1oncc1-c1ccccc1)c1ccccc1 [Compound 18]
++ (++ = pIC50 4.50-5.49) | ++ (++ = pIC50 4.50-5.49) | – | – | Nc1oncc1-c1ccccc1F [Compound 20]
